Measurements: patent US12275729B2 (Merck Sharp & Dohme LLC, priority 2017, dated 2025)
pIC50: −log10 of the molar value.

target: IDO1 (Homo sapiens, UniProt P14902); assay: IDO1 Cellular Assay in HeLa Cells Stimulated with IFNγ; type: cell-based; conditions: about 48 hours, read-out: Hela IC50
Sequence (P14902 whole entry): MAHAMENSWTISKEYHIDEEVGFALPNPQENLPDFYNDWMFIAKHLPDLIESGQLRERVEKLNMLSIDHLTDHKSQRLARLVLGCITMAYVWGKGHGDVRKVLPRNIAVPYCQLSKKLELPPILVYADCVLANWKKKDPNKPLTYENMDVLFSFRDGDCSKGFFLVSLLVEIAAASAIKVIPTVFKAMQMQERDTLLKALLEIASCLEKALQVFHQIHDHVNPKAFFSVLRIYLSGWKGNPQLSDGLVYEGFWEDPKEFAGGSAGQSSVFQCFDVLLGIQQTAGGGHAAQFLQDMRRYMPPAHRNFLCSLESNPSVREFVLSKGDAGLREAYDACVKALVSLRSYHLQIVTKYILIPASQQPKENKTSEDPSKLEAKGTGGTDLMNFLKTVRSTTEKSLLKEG

| Compound | pIC50 |
| --- | --- |
| O=C(NCc1ccc2c(c1)CCCN2C(=O)c1cccc(Cl)c1)c1cccc(Cl)c1 [Example 16, 3-chloro-N-((1-(3-chlorobenzoyl)-1,2,3,4-tetrahydroquinolin-6-yl)methyl)benzamide] | 6.93 |
| CC(C)CC(=O)N1CCCc2cc(CNC(=O)c3ccc(C(C)C)cc3)ccc21 [Example 3, N-{[1-(3-methylbutanoyl)-1,2,3,4-tetrahydroquinolin-6-yl]methyl}-4-(propan-2-yl)benzamide] | 6.68 |
| O=C(Nc1ccc(F)cc1)C(c1ccc2c(n1)CCCN2C(=O)C1CC1)C1CC1 (single isomer, unassigned) [Example 261, 2-(5-(cyclopropanecarbonyl)-5,6,7,8-tetrahydro-1,5-naphthyridin-2-yl)-2-cyclopropyl-N-(4-fluorophenyl)acetamide] | 7.62 |
| O=C(NCc1ccc2c(c1)CCCN2C(=O)OCc1ccccc1)c1ccc(Cl)cc1 [Example 15, benzyl 6-((4-chlorobenzamido)methyl)-3,4-dihydroquinoline-1(2H)-carboxylate] | 7.43 |
| CCn1cc(C(=O)N2CCCc3cc(C4(C(=O)Nc5ccc(F)cc5)CCC4)ccc32)cn1 [Example 112, 1-[1-(1-ethyl-1H-pyrazole-4-carbonyl)-1,2,3,4-tetrahydroquinolin-6-yl]-N-(4-fluorophenyl)cyclobutane-1-carboxamide] | 8.57 |
| CC(NC(=O)c1ccc(F)cc1)c1ccc2c(n1)CCCN2C(=O)c1ccccn1 (centres unmarked) [Example 280, 2-(1-(4-fluorobenzamido)ethyl)-5-picolinoyl-5,6,7,8-tetrahydro-1,5-naphthyridin-1-ium 2,2,2-trifluoroacetate] | 8.15 |
| O=C(c1cnn(CC(F)F)c1)N1CCCc2cc(C3(C(=O)Nc4ccc(F)cc4)CCC3)ccc21 [Example 114, 1-{1-[1-(2,2-difluoroethyl)-1H-pyrazole-4-carbonyl]-1,2,3,4-tetrahydroquinolin-6-yl}-N-(4-fluorophenyl)cyclobutane-1-carboxamide] | 7.06 |
| N#Cc1cccc(C(=O)N2CCCc3cc(C4(C(=O)Nc5ccc(F)cn5)CCC4)ccc32)c1 [Example 108, 1-[1-(3-cyanobenzene-1-carbonyl)-1,2,3,4-tetrahydroquinolin-6-yl]-N-(5-fluoropyridin-2-yl)cyclobutane-1-carboxamide] | 8.31 |
| C[C@H](C(=O)Nc1ccc(F)cc1)c1ccc2c(c1)CCCN2C(=O)C1CN(C)CCO1 (stereo partly drawn) [Example 74, (2S)-N-(4-fluorophenyl)-2-[1-(4-methylmorpholine-2-carbonyl)-1,2,3,4-tetrahydroquinolin-6-yl]propanamide] | 6.34 |
| CC(NC(=O)c1ccc(F)cc1)c1ccc2c(c1)CCCN2C(CO)c1cccc(Cl)c1 (single isomer, unassigned) [Example 95] | 6.26 |
| C[C@@H](NC(=O)c1ccc(F)cc1)c1ccc2c(n1)CCCN2C(=O)[C@H]1CCOC1 [Example 131, 4-fluoro-N-((R)-1-(5-((S)-tetrahydrofuran-3-carbonyl)-5,6,7,8-tetrahydro-1,5-naphthyridin-2-yl)ethyl)benzamide] | 6.45 |
| CC(NC(=O)c1ccc(F)cc1)c1ccc2c(n1)CCCN2C(=O)c1cccc(C#N)c1 (centres unmarked) [Example 147, N-{1-[5-(3-cyanobenzene-1-carbonyl)-5,6,7,8-tetrahydro-1,5-naphthyridin-2-yl]ethyl}-4-fluorobenzamide] | 8.77 |
| CC(NC(=O)c1ccc(F)cc1)c1ccc2c(n1)C(F)(F)CCN2C(=O)C1CC1 (centres unmarked) [Example 193, N-(1-(5-(cyclopropanecarbonyl)-8,8-difluoro-5,6,7,8-tetrahydro-1,5-naphthyridin-2-yl)ethyl)-4-fluorobenzamide] | 5.28 |
| O=C(Nc1ccc(F)cc1)C1(c2ccc3c(n2)CCN3c2ccccn2)CCC1 [Example 271, N-(4-fluorophenyl)-1-[1-(pyridin-2-yl)-2,3-dihydro-1H-pyrrolo[3,2-b]pyridin-5-yl]cyclobutane-1-carboxamide] | 7.96 |
| O=C(c1cocn1)N1CCCc2cc(C3(C(=O)Nc4ccc(F)cn4)CCC3)ccc21 [Example 121, N-(5-fluoropyridin-2-yl)-1-[1-(1,3-oxazole-4-carbonyl)-1,2,3,4-tetrahydroquinolin-6-yl]cyclobutane-1-carboxamide] | 8.39 |
| CC(C(=O)Nc1ccc(F)cc1)c1ccc2c(c1)CCCN2C(=O)C1CCCO1 (centres unmarked) [Example 39, N-(4-fluorophenyl)-2-[1-(oxolane-2-carbonyl)-1,2,3,4-tetrahydroquinolin-6-yl]propanamide] | 8.27 |
| O=C(NC1(c2ccc3c(n2)CCCN3C(=O)C2CCCCO2)CC1)c1ccc(F)cc1 (centres unmarked) [Example 170, 4-fluoro-N-{1-[5-(oxane-2-carbonyl)-5,6,7,8-tetrahydro-1,5-naphthyridin-2-yl]cyclopropyl}benzamide] | 8.62 |
| C[C@H](C(=O)Nc1ccc(F)cc1)c1ccc2c(c1)CCCN2C(=O)CC(C)(C)O [Example 71, (2S)-N-(4-fluorophenyl)-2-[1-(3-hydroxy-3-methylbutanoyl)-1,2,3,4-tetrahydroquinolin-6-yl]propanamide] | 7.52 |
| Cc1nccc(N2CCCc3nc(C4(NC(=O)c5ccc(Cl)cc5)CC4)ccc32)n1 [Example 299, 4-chloro-N-(1-(5-(2-methylpyrimidin-4-yl)-5,6,7,8-tetrahydro-1,5-naphthyridin-2-yl)cyclopropyl)benzamide] | 9.13 |

same assay, conditions: read-out: Hela IC50

| Compound | pIC50 |
| --- | --- |
| CC(NC(=O)c1ccc(F)cc1)c1ccc2c(n1)CCCN2C(=O)OC(C)c1cccnc1 (centres unmarked) [Example 318, 1-(pyridin-3-yl)ethyl 6-(1-(4-fluorobenzamido)ethyl)-3,4-dihydro-1,5-naphthyridine-1(2H)-carboxylate] | 7.70 |
| CC(NC(=O)c1ccc(F)cc1)c1ccc2c(n1)CCCN2C(=O)OC1CCCC1 (centres unmarked) [Example 314, cyclopentyl 6-(1-(4-fluorobenzamido)ethyl)-3,4-dihydro-1,5-naphthyridine-1(2H)-carboxylate] | 9.19 |
| Cc1nccc(N2CCCc3nc(C(C)C(=O)Nc4ccc(F)cc4)ccc32)n1 (centres unmarked) [Example 371, N-(4-fluorophenyl)-2-(5-(2-methylpyrimidin-4-yl)-5,6,7,8-tetrahydro-1,5-naphthyridin-2-yl)propanamide] | 8.57 |
| COc1ccnc(N2CCCc3nc(C(C)NC(=O)c4ccc(F)cc4)ccc32)c1 (centres unmarked) [Example 377, 4-fluoro-N-(1-(5-(4-methoxypyridin-2-yl)-5,6,7,8-tetrahydro-1,5-naphthyridin-2-yl)ethyl)benzamide] | 6.50 |
| CC(NC(=O)c1ccc(F)cc1)c1ccc2c(n1)CCCN2C(=O)OCCC1CC1(F)F (centres unmarked) [Example 319, 2-(2,2-difluorocyclopropyl)ethyl 6-(1-(4-fluorobenzamido)ethyl)-3,4-dihydro-1,5-naphthyridine-1(2H)-carboxylate] | 8.01 |
| C[C@H](NC(=O)c1ccc(F)cc1)c1ccc2c(n1)CCCN2c1cccc(=O)[nH]1 [Example 386, (S)-2-(1-(4-fluorobenzamido)ethyl)-5-(6-oxo-1,6-dihydropyridin-2-yl)-5,6,7,8-tetrahydro-1,5-naphthyridin-1-ium 2,2,2-trifluoroacetate] | 7.38 |
| Cc1nc(N2CCCc3nc(C(C)NC(=O)c4ccc(Cl)cc4)ccc32)c2cc(Cl)ccc2n1 (centres unmarked) [Example 359, 5-(6-chloro-2-methylquinazolin-4-yl)-2-(1-(4-chlorobenzamido)ethyl)-5,6,7,8-tetrahydro-1,5-naphthyridin-1-ium 2,2,2-trifluoroacetate] | 7.60 |
